Measurements from ChEMBL document CHEMBL1138720, “Synthesis, (1-->3)-beta-D-glucanase-binding ability and phytoalexin-elicitor activity of (R)-2,3-epoxypropyl (1-->3)-beta-D-pentaglucoside” (Bioorg Med Chem Lett, 2004).

Experiments:
[1] = Inactivation of (1-3)-beta-D-glucanase by the compound was determined
[2] = Phytoalexin-elicitor activity in tobacco cotyledon tissue was determined after 22 hrs; format: functional, Nicotiana tabacum
[3] = Phytoalexin-elicitor activity in tobacco cotyledon tissue was determined after 44 hrs; format: functional, Nicotiana tabacum
[4] = Phytoalexin-elicitor activity in tobacco cotyledon tissue was determined after 66 hrs; format: functional, Nicotiana tabacum

K app [1]: 0.000379 min⁻¹
EC50 [2]: 90 uM l-1
EC50 [3]: 80 uM l-1
EC50 [4]: 160 uM l-1
Structure (SMILES): OC[C@H]1O[C@@H](O[C@@H]2[C@@H](O)[C@H](O[C@@H]3[C@@H](O)[C@H](O[C@@H]4[C@@H](O)[C@H](O[C@@H]5[C@@H](O)[C@H](OC[C@H]6CO6)O[C@H](CO)[C@H]5O)O[C@H](CO)[C@H]4O)O[C@H](CO)[C@H]3O)O[C@H](CO)[C@H]2O)[C@H](O)[C@@H](O)[C@@H]1O
